Test system: T1, urease
T1 construct: jack bean is only the usual preparation; docking model 1E9Z (Helicobacter pylori) is not the assayed enzyme
Test: indophenol (phenol-hypochlorite) ammonia assay, […] nm
Assay type: biochemical
Details: urea substrate (2.25% solution), phosphate buffer pH 7.0, room temperature, 15 min preincubation

NC(=O)NO [hydroxy urea]
Urease IC50: 9.8 ± 1.20 µg/mL

Reference: PMC9573548, “Metabolic Profiling by GC-MS, In Vitro Biological Potential, and In Silico Molecular Docking Studies of Verbena officinalis” (Molecules, 2022)
